Values quoted from earlier work, collected in publication PMC10432605 (Blood Advances, 2023).
Read-outs that look alike come from different tables or passages of the source.

What was measured:
patients with r/r MCL = details: cited from earlier work
patients = details: cited from earlier work
[1] = PET assessment, median follow-up 26 months
[2] = ref 10 (ibrutinib), 14 (acalabrutinib), 15 (zanubrutinib)
[3] = median follow-up of 26.7 months

Row | SMILES | CR (patients with r/r MCL; [1]) [%] | ORR (patients with r/r MCL; [1]) [%] | median DOR (patients with r/r MCL; acalabrutinib trial) [months] | median PFS (patients with r/r MCL; acalabrutinib trial) [months] | major hemorrhage (patients) [%] | incidence of diarrhea (patients; [2]) [%] | incidence of second malignancy (patients; [2]) [%] | median TTR (patients with r/r MCL) [months] | ORR in patients with bulky tumors (patients with r/r MCL; [3]) [%] | ORR in patients with ≥2 prior treatments (patients with r/r MCL; [3]) [%] | ORR (patients with r/r MCL; pivotal study 1104, r/r MCL, median 15.3-month follow-up, CT-based) [%] | median DOR (patients with r/r MCL; pivotal study 1104) [months] | median PFS (patients with r/r MCL; pivotal study 1104) [months] | CR (patients with r/r MCL; pivotal study 1104, median 15.3-month follow-up, CT-based) [%] | grade 3 or greater atrial fibrillation and atrial flutter (patients) [%] | grade 3 or higher hypertension events (patients) [%]
1 | CC#CC(=O)N1CCC[C@H]1c1nc(-c2ccc(C(=O)Nc3ccccn3)cc2)c2c(N)nccn12 [acalabrutinib] | 43 | 81 | 26 | 20 | 3.0 | 31 | 12 |  |  |  |  |  |  |  |  | 
2 | C=CC(=O)N1CCC[C@@H](n2nc(-c3ccc(Oc4ccccc4)cc3)c3c(N)ncnc32)C1 [ibrutinib] |  |  |  |  |  |  |  | 1.9 | 67 | 63 | 65.8 | 17.5 | 13.9 | 17.1 | 4 | 8
